Reference: ChEMBL document CHEMBL1201862, “PubChem BioAssay data set” (2004)
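Values below derive from 48-hour exposures of cells grown in 96-well plates, with endpoints linearly interpolated between the two concentrations bracketing the appropriate inhibition level. GI50: concentration for 50% inhibition of growth.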 Calls of active or inactive are those of the source. Cut-off read from the data, not from the text of the source: active = GI50 up to about 1.1 µM and inactive = higher.

Key:
Assay in all cases: NCI anticancer screen, dose series, 48 h
786-0 = tested on: 786-0
A498 = tested on: A498
A549 = tested on: A549
ACHN = tested on: ACHN
CAKI-1 = tested on: CAKI-1
CCRF-CEM = tested on: CCRF-CEM
COLO 205 = tested on: COLO 205
DU-145 = tested on: DU-145
EKVX = tested on: EKVX
HCC 2998 = tested on: HCC 2998
HCT-116 = tested on: HCT-116
HCT-15 = tested on: HCT-15
HL-60 = tested on: HL-60
HOP-62 = tested on: HOP-62
HOP-92 = tested on: HOP-92
HT-29 = tested on: HT-29
Hs-578T = tested on: Hs-578T
IGROV-1 = tested on: IGROV-1
K562 = tested on: K562
KM12 = tested on: KM12
LOX IMVI = tested on: LOX IMVI
M14 = tested on: M14
MCF7 = tested on: MCF7
MDA-MB-231 = tested on: MDA-MB-231
MDA-MB-435 = tested on: MDA-MB-435
MDA-N = tested on: MDA-N
MOLT-4 = tested on: MOLT-4
Malme-3M = tested on: Malme-3M
NCI-H226 = tested on: NCI-H226
NCI-H23 = tested on: NCI-H23
NCI-H460 = tested on: NCI-H460
NCI-H522 = tested on: NCI-H522
NCI/ADR-RES = tested on: NCI/ADR-RES
OVCAR-3 = tested on: OVCAR-3
OVCAR-4 = tested on: OVCAR-4
OVCAR-5 = tested on: OVCAR-5
OVCAR-8 = tested on: OVCAR-8
PC-3 = tested on: PC-3
RPMI-8226 = tested on: RPMI-8226
RXF 393 = tested on: RXF 393
SF-268 = tested on: SF-268
SF-295 = tested on: SF-295
SF-539 = tested on: SF-539
SK-MEL-28 = tested on: SK-MEL-28
SK-MEL-2 = tested on: SK-MEL-2
SK-MEL-5 = tested on: SK-MEL-5
SK-OV-3 = tested on: SK-OV-3
SN12C = tested on: SN12C
SNB-19 = tested on: SNB-19
SNB-75 = tested on: SNB-75
SR = tested on: SR
SW-620 = tested on: SW-620
T47D = tested on: T47D
TK-10 = tested on: TK-10
U-251 = tested on: U-251
UACC-257 = tested on: UACC-257
UACC-62 = tested on: UACC-62
UO-31 = tested on: UO-31
BT-549 = tested on: BT-549

Measured: GI50

CC(=O)c1ccc2c(c1)C(=O)c1sc(C(C)=O)cc1C2=O
0.918 µM: HCT-15
active: ACHN 0.736 µM | CCRF-CEM 0.403 µM | DU-145 1.01 µM | HCT-116 0.488 µM | HL-60 0.24 µM | IGROV-1 1.07 µM | KM12 1.01 µM | LOX IMVI 0.22 µM | M14 0.91 µM | MDA-N 0.796 µM | MOLT-4 0.233 µM | Malme-3M 0.526 µM | NCI-H226 1.04 µM | NCI-H23 1.09 µM | NCI-H522 0.652 µM | NCI/ADR-RES 0.906 µM | OVCAR-3 0.368 µM | OVCAR-5 1.08 µM | OVCAR-8 0.695 µM | SF-295 1.01 µM | SF-539 0.804 µM | SK-MEL-5 0.389 µM | SN12C 0.578 µM | SNB-19 0.748 µM | SR 0.419 µM | SW-620 0.738 µM | UACC-257 0.859 µM | UACC-62 0.995 µM | UO-31 1.07 µM
inactive: 786-0 1.68 µM | A498 21.6 µM | A549 2.59 µM | CAKI-1 1.75 µM | COLO 205 1.69 µM | EKVX 1.18 µM | HCC 2998 3.17 µM | HOP-62 1.73 µM | HOP-92 1.42 µM | HT-29 1.2 µM | Hs-578T 1.46 µM | K562 1.7 µM | MCF7 1.37 µM | MDA-MB-231 1.23 µM | MDA-MB-435 1.18 µM | NCI-H460 1.37 µM | OVCAR-4 1.73 µM | PC-3 1.82 µM | RPMI-8226 1.74 µM | RXF 393 1.3 µM | SF-268 1.17 µM | SK-MEL-28 2.25 µM | SK-MEL-2 1.47 µM | SK-OV-3 6.98 µM | SNB-75 1.67 µM | T47D 1.32 µM | TK-10 1.76 µM | U-251 1.56 µM

CN1C(=O)N(C)C2(CCN(CCCCCCF)CC2)C1=O
inactive: 786-0 > 100 µM | A549 > 100 µM | ACHN > 100 µM | BT-549 23.3 µM | CAKI-1 > 100 µM | CCRF-CEM > 100 µM | COLO 205 > 100 µM | DU-145 > 100 µM | EKVX > 100 µM | HCC 2998 > 100 µM | HCT-116 > 100 µM | HL-60 > 100 µM | HOP-62 > 100 µM | HT-29 > 100 µM | IGROV-1 > 100 µM | K562 > 100 µM | KM12 > 100 µM | LOX IMVI > 100 µM | M14 > 100 µM | MCF7 > 100 µM | MDA-MB-231 > 100 µM | MDA-MB-435 26 µM | MDA-N > 100 µM | MOLT-4 > 10 µM | Malme-3M > 100 µM | NCI-H226 > 100 µM | NCI-H23 > 100 µM | NCI-H522 > 100 µM | NCI/ADR-RES > 100 µM | OVCAR-3 > 100 µM | OVCAR-5 > 100 µM | OVCAR-8 > 100 µM | PC-3 > 100 µM | RPMI-8226 > 100 µM | RXF 393 > 100 µM | SF-268 > 100 µM | SF-295 > 100 µM | SF-539 > 100 µM | SK-MEL-28 > 100 µM | SK-MEL-5 > 100 µM | SK-OV-3 > 100 µM | SN12C > 100 µM | SNB-19 > 100 µM | SNB-75 > 100 µM | SR > 100 µM | SW-620 > 100 µM | T47D > 100 µM | TK-10 > 100 µM | U-251 > 100 µM | UACC-257 > 100 µM | UACC-62 > 100 µM | UO-31 > 100 µM
> 100 µM: HCT-15
